Data from US9403830B2, “Inhibitors of leukotriene production” (Boehringer Ingelheim International GmbH, priority 2012, dated 2016).
Blank lines part the entries; values can stand above or below the compound they belong to.

Legend:
human LTA4 hydrolase = target: T1, human LTA4 hydrolase (Homo sapiens, UniProt P09960); test: LTA4H Enzyme assay (peptidase, Arg-AMC cleavage); type: biochemical; conditions: LTA4H enzyme 1 nM, Arg-AMC substrate 50 μM, room temperature 1 h, fluorescence 380/460 nm
T1 sequence (P09960 1-611): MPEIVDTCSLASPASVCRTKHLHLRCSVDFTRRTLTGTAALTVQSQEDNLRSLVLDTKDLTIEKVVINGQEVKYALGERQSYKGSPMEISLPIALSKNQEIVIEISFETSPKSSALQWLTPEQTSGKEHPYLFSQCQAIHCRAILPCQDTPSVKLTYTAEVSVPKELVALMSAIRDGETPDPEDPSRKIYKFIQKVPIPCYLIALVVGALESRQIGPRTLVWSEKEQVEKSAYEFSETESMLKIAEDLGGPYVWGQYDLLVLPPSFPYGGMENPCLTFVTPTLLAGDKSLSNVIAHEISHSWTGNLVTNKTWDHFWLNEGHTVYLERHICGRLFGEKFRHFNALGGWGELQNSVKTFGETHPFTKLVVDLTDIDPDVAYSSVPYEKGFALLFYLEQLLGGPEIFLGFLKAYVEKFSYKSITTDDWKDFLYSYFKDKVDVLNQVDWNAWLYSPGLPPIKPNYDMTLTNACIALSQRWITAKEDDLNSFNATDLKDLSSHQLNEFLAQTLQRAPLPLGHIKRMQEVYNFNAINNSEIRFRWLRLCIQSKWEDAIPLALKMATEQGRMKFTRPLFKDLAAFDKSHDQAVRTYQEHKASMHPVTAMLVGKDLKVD
Method in brief: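 Human LTA4H (1 nM final) incubated with compound and Arg-AMC (50 μM final) in 50 mM Tris-HCl pH 7.5, 100 mM KCl, 0.5% BSA, 1 h at room temperature. Product read as AMC fluorescence (ex 380/em 460 nm); IC50 reported.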

[1] = system: LTB4 synthesis in human whole blood; test: human whole blood (HWB) assay, inhibition of LTB4 production; type: cell-based; conditions: heparinized human whole blood, calcimycin 20 μM stimulation, plasma LTB4
Method in brief: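 Heparinized human whole blood preincubated with compound 15 min at 37 °C, then stimulated with 20 μM (final) calcimycin for 30 min at 37 °C. Plasma LTB4 measured by antibody-based HTRF; IC50 reported.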

Compound: CC(=O)N[C@@H]1C[C@H]2CC[C@@H](C1)N2Cc1ccc2cc(Oc3ccc(-c4cc[nH]n4)cn3)ccc2n1 [Example 239, N-((exo)-8-{6-[5-(1H-Pyrazol-3-yl)-pyridin-2-yloxy]-quinolin-2-ylmethyl}-8-aza-bicyclo[3.2.1]oct-3-yl)-acetamide]
- IC50 (human LTA4 hydrolase): 0.43 nM
- IC50 [1]: 260 nM

Compound: c1cc(-c2ccc(Oc3ccc4nc(CN5CCCC6(COC6)C5)ccc4c3)nc2)[nH]n1 [Example 48, 2-(2-Oxa-6-aza-spiro[3.5]non-6-ylmethyl)-6-[5-(2H-pyrazol-3-yl)-pyridin-2-yloxy]-quinoline]
- IC50 (human LTA4 hydrolase): 2.1 nM
- IC50 [1]: 740 nM

Compound: COCCNCc1nc2cc(Oc3ccc(-c4ccn[nH]4)cc3)ccc2[nH]1 [Example 91, (2-Methoxy-ethyl)-{5-[4-(2H-pyrazol-3-yl)-phenoxy]-1H-benzoimidazol-2-ylmethyl}-amine]
- IC50 (human LTA4 hydrolase): 0.21 nM
- IC50 [1]: 140 nM

Compound: CS(=O)(=O)CC(=O)N1CCN(Cc2ccc3cc(Oc4ccc(-c5ccn[nH]5)cn4)ccc3n2)CC1 [Example 39, 2-Methanesulfonyl-1-(4-{6-[5-(2H-pyrazol-3-yl)-pyridin-2-yloxy]-quinolin-2-ylmethyl}-piperazin-1-yl)-ethanone]
- IC50 (human LTA4 hydrolase): 2 nM
- IC50 [1]: 280 nM

Compound: c1cc(-c2ccc(Oc3ccc4c(cnn4CCN4CCCC4)c3)nc2)[nH]n1 [Example 83, 5-[5-(2H-Pyrazol-3-yl)-pyridin-2-yloxy]-1-(2-pyrrolidin-1-yl-ethyl)-1H-indazole]
- IC50 (human LTA4 hydrolase): 0.88 nM
- IC50 [1]: 120 nM

Compound: c1cc(-c2ccc(Oc3ccc4nc(CNCCC5CCOCC5)ccc4c3)nc2)[nH]n1 [Example 214, {6-[5-(2H-Pyrazol-3-yl)-pyridin-2-yloxy]-quinolin-2-ylmethyl}-[2-(tetrahydro-pyran-4-yl)-ethyl]-amine]
- IC50 (human LTA4 hydrolase): 2.5 nM
- IC50 [1]: 400 nM

Compound: CC(=O)N1CCCN(CCc2coc3cc(Oc4ccc(-c5ccn[nH]5)cn4)ccc23)CC1 [Example 134, 1-[4-(2-{6-[5-(2H-Pyrazol-3-yl)-pyridin-2-yloxy]-benzofuran-3-yl}-ethyl)-[1,4]diazepan-1-yl]-ethanone]
- IC50 (human LTA4 hydrolase): 0.28 nM
- IC50 [1]: 150 nM

Compound: COCCN(C)Cc1ccc2cc(Oc3ccc(-c4ccn[nH]4)cn3)ccc2n1 [Example 122, (2-Methoxy-ethyl)-methyl-{6-[5-(2H-pyrazol-3-yl)-pyridin-2-yloxy]-quinolin-2-ylmethyl}-amine]
- IC50 (human LTA4 hydrolase): 0.97 nM
- IC50 [1]: 200 nM

Compound: c1cc(-c2ccc(Cc3ccc4nc(CN5CCCC5)[nH]c4c3)cc2)[nH]n1 [Example 54, 6-[4-(2H-Pyrazol-3-yl)-benzyl]-2-pyrrolidin-1-ylmethyl-1H-benzoimidazole]
- IC50 (human LTA4 hydrolase): 0.13 nM
- IC50 [1]: 94 nM

Compound: O=C(CO)N1CC2CCC1CN2Cc1ccc2cc(Oc3ccc(-c4ccn[nH]4)cn3)ccc2n1 (stereo not drawn) [Example 146, 2-Hydroxy-1-(5-{6-[5-(2H-pyrazol-3-yl)-pyridin-2-yloxy]-quinolin-2-ylmethyl}-2,5-diaza-bicyclo[2.2.2]oct-2-yl)-ethanone]
- IC50 (human LTA4 hydrolase): 0.37 nM
- IC50 [1]: 160 nM

Compound: COC1CCN(Cc2ccc3cc(Oc4ccc(-c5ccn[nH]5)cn4)ccc3n2)CC1 [Example 212, 2-(4-Methoxy-piperidin-1-ylmethyl)-6-[5-(2H-pyrazol-3-yl)-pyridin-2-yloxy]-quinoline]
- IC50 (human LTA4 hydrolase): 1.2 nM
- IC50 [1]: 250 nM

Compound: CC(=O)N1CC2CCC(C1)N2Cc1ccc2cc(Oc3ccc(-c4ccn[nH]4)cn3)ccc2n1 [Example 24, 1-(8-{6-[5-(2H-Pyrazol-3-yl)-pyridin-2-yloxy]-quinolin-2-ylmethyl}-3,8-diaza-bicyclo[3.2.1]oct-3-yl)-ethanone]
- IC50 (human LTA4 hydrolase): 0.33 nM
- IC50 [1]: 99 nM

Compound: O=C(O)c1ccc(C2CCN(Cc3ccc4c(ccn4Cc4ccc(-c5ccn[nH]5)cc4)c3)CC2)cc1 [Example 124, 4-(1-{1-[4-(2H-pyrazol-3-yl)-benzyl]-1H-indol-5-ylmethyl}-piperidin-4-yl)-benzoic acid]
- IC50 (human LTA4 hydrolase): 0.061 nM
- IC50 [1]: 130 nM

Compound: CCCN(CCO)Cc1nc2cc(Oc3ccc(-c4ccn[nH]4)cc3)ccc2[nH]1 [Example 199, 2-(Propyl-{5-[4-(2H-pyrazol-3-yl)-phenoxy]-1H-benzoimidazol-2-ylmethyl}-amino)-ethanol]
- IC50 (human LTA4 hydrolase): 0.13 nM
- IC50 [1]: 190 nM

Compound: CC(=O)N1C[C@H]2C[C@@H]1CN2Cc1ccc2cc(Oc3ccc(-c4ccn[nH]4)cn3)ccc2n1 [Example 147, 1-((1R,4R)-5-{6-[5-(2H-Pyrazol-3-yl)-pyridin-2-yloxy]-quinolin-2-ylmethyl}-2,5-diaza-bicyclo[2.2.1]hept-2-yl)-ethanone]
- IC50 (human LTA4 hydrolase): 0.48 nM
- IC50 [1]: 160 nM

Second part, the compound after the results:

- IC50 (human LTA4 hydrolase): 0.16 nM
- IC50 [1]: 230 nM
Compound: CC(C)(C)C(=O)N1CCN(Cc2nc3cc(Oc4ccc(-c5ccn[nH]5)cc4)ccc3[nH]2)CC1 [Example 70, 2,2-Dimethyl-1-(4-{5-[4-(2H-pyrazol-3-yl)-phenoxy]-1H-benzoimidazol-2-ylmethyl}-piperazin-1-yl)-propan-1-one]

- IC50 (human LTA4 hydrolase): 0.27 nM
- IC50 [1]: 100 nM
Compound: CN(Cc1nc2cc(Oc3ccc(-c4ccn[nH]4)cc3)ccc2[nH]1)C[C@H]1CCCO1 [Example 81]

- IC50 (human LTA4 hydrolase): 1.2 nM
- IC50 [1]: 310 nM
Compound: c1cc(-c2ccc(Oc3ccc4cc(CN5CCOCC5)nn4c3)cc2)[nH]n1 [Example 14, 2-morpholin-4-ylmethyl-6-[4-(2H-pyrazol-3-yl)-phenoxy]-pyrazolo[1,5-a]pyridine]

- IC50 (human LTA4 hydrolase): 0.79 nM
- IC50 [1]: 160 nM
Compound: N#CCC1CCN(Cc2ccc3cc(Oc4ccc(-c5ccn[nH]5)cn4)ccc3n2)CC1 [Example 96, (1-{6-[5-(2H-Pyrazol-3-yl)-pyridin-2-yloxy]-quinolin-2-ylmethyl}-piperidin-4-yl)-acetonitrile]

- IC50 (human LTA4 hydrolase): 0.12 nM
- IC50 [1]: 2100 nM
Compound: O=C(O)C1CCN(Cc2cn3cc(Oc4ccc(-c5ccn[nH]5)cc4)ccc3n2)CC1 [Example 259, 1-{6-[4-(2H-Pyrazol-3-yl)-phenoxy]-imidazo[1,2-a]pyridin-2-ylmethyl}-piperidine-4-carboxylic acid]

- IC50 (human LTA4 hydrolase): 0.13 nM
- IC50 [1]: 110 nM
Compound: O=C(N1CCN(Cc2nc3cc(Oc4ccc(-c5ccn[nH]5)cc4)ccc3[nH]2)CC1)C(F)(F)F [Example 57, 2,2,2-Trifluoro-1-(4-[5-[4-(2H-pyrazol-3-yl)-phenoxy]-1H-benzoimidazol-2-ylmethyl]-piperazin-1-yl)-ethanone]

- IC50 (human LTA4 hydrolase): 0.64 nM
- IC50 [1]: 260 nM
Compound: NC(=O)C1CCN(CC2Cc3ccc(Oc4ccc(-c5ccn[nH]5)cc4)cc3O2)CC1 (stereo not drawn) [Example 144, 1-{6-[4-(2H-Pyrazol-3-yl)-phenoxy]-2,3-dihydro-benzofuran-2-ylmethyl}-piperidine-4-carboxylic acid amide]

- IC50 (human LTA4 hydrolase): 0.29 nM
- IC50 [1]: 100 nM
Compound: CC(=O)NC1CCN(CC2Cc3ccc(Oc4ccc(-c5ccn[nH]5)cn4)cc3O2)CC1 (stereo not drawn) [Example 125, N-(1-{6-[5-(2H-Pyrazol-3-yl)-pyridin-2-yloxy]-2,3-dihydro-benzofuran-2-ylmethyl}-piperidin-4-yl)-acetamide]

- IC50 (human LTA4 hydrolase): 0.17 nM
- IC50 [1]: 89 nM
Compound: CC1CCN(Cc2nc3cc(Oc4ccc(-c5ccn[nH]5)cc4)ccc3[nH]2)CC1 [Example 153, 2-(4-Methyl-piperidin-1-ylmethyl)-5-[4-(2H-pyrazol-3-yl)-phenoxy]-1H-benzoimidazole]

- IC50 (human LTA4 hydrolase): 0.17 nM
- IC50 [1]: 140 nM
Compound: c1cc(-c2ccc(Oc3ccc4[nH]c(CN5CCCOCC5)nc4c3)cc2)[nH]n1 [Example 175, 2-[1,4]Oxazepan-4-ylmethyl-5-[4-(2H-pyrazol-3-yl)-phenoxy]-1H-benzoimidazole]

- IC50 (human LTA4 hydrolase): 0.21 nM
- IC50 [1]: 190 nM
Compound: CC(=O)N1CCN(Cc2ccc3cc(Oc4ccc(-c5ccn[nH]5)cc4)ccc3n2)CC1 [Example 247, 1-(4-{6-[4-(2H-Pyrazol-3-yl)-phenoxy]-quinolin-2-ylmethyl}-piperazin-1-yl)-ethanone]

- IC50 (human LTA4 hydrolase): 0.062 nM
- IC50 [1]: 150 nM
Compound: CC1(C)COCCN1Cc1nc2cc(Oc3ccc(-c4ccn[nH]4)cc3)ccc2[nH]1 [Example 182, 2-(3,3-Dimethyl-moprholin-4-ylmethyl)-5-[4-(2H-pyrazol-3-yl)-phenoxy]-1H-benzoimidazole]

- IC50 (human LTA4 hydrolase): 0.099 nM
- IC50 [1]: 88 nM
Compound: CN(Cc1nc2cc(Oc3ccc(-c4ccn[nH]4)cc3)ccc2[nH]1)[C@H]1CCOC1 [Example 77, Methyl-{5-[4-(2H-pyrazol-3-yl)-phenoxy]-1H-benzoimidazol-2-ylmethyl}-(S)-tetrahydro-furan-3-yl-amine]

- IC50 (human LTA4 hydrolase): 0.45 nM
- IC50 [1]: 190 nM
Compound: CCC(=O)N1CCN(Cc2ccc3cc(Oc4ccc(-c5ccn[nH]5)cc4)ccc3n2)CC1 [Example 12, 1-(4-{6-[4-(2H-pyrazol-3-yl)-phenoxy]-quinolin-2-ylmethyl}-piperazin-1-yl)-propan-1-one]

- IC50 (human LTA4 hydrolase): 0.24 nM
- IC50 [1]: 84 nM
Compound: c1cc(-c2ccc(Oc3ccc4c(cnn4CCN4CCCC4)c3)cc2)[nH]n1 [Example 75, 5-[4-(2H-pyrazol-3-yl)-phenoxy]-1-(2-pyrrolidin-1-yl-ethyl)-1H-indazole]
